According to ChEMBL document CHEMBL1152735, “Synthesis and antiprotozoal activity of novel 1-methylbenzimidazole derivatives” (Bioorg Med Chem, 2009):

How the values were obtained:
Giardia intestinalis = test: Antiprotozoal activity against Giardia intestinalis IMSS:0981:1 trophozoites after 48 hrs; type: functional, organism-based; details: Giardia duodenalis
Trichomonas vaginalis = test: Antiprotozoal activity against Trichomonas vaginalis GT3 trophozoites after 48 hrs; type: functional, organism-based; details: GT3, 48 h

IC50 (Giardia intestinalis) [nM] | IC50 (Trichomonas vaginalis) [nM] | SMILES
20.3 | 40.7 | CC(O)c1nc2cc(Cl)c(Cl)cc2n1C (stereo not given)
67 | 228 | CC(=O)c1nc2ccc(Cl)cc2n1C
86.1 | 210 | CC(=O)c1nc2ccccc2n1C
94.2 | 166 | Cn1c(C(N)=O)nc2ccccc21
76.3 | 109 | Cn1c(C(N)=O)nc2ccc(Cl)cc21
71.2 | 109 | CC(O)c1nc2ccc(Cl)cc2n1C (stereo not given)
68.6 | 85.7 | CCOC(=O)c1nc2ccccc2n1C
34.9 | 63.7 | CC(=O)c1nc2cc(Cl)c(Cl)cc2n1C
60.8 | 108 | CNC(=O)c1nc2ccccc2n1C
68.1 | 167 | CC(O)c1nc2ccccc2n1C (stereo not given)
462 | 134 | Cn1c(C(N)=O)nc2cc(Cl)c(Cl)cc21
71.5 | 105 | CNC(=O)c1nc2ccc(Cl)cc2n1C
48.2 | 18.9 | CCOC(=O)c1nc2ccc(Cl)cc2n1C
358 | 358 | CNC(=O)c1nc2cc(Cl)ccc2n1C
73.5 | 75.3 | CN(C)C(=O)c1nc2cc(Cl)c(Cl)cc2n1C
244 | 210 | CN(C)C(=O)c1nc2cc(Cl)ccc2n1C
39.8 | 27.2 | CCOC(=O)c1nc2cc(Cl)ccc2n1C
27.5 | 29.3 | CCOC(=O)c1nc2cc(Cl)c(Cl)cc2n1C
37.9 | 94.9 | CC(O)c1nc2cc(Cl)ccc2n1C (stereo not given)
234 | 186 | Cn1c(C(N)=O)nc2cc(Cl)ccc21
40 | 238 | CN(C)C(=O)c1nc2ccc(Cl)cc2n1C
151 | 225 | CNC(=O)c1nc2cc(Cl)c(Cl)cc2n1C
50.3 | 132 | CC(=O)c1nc2cc(Cl)ccc2n1C
512 | 430 | CN(C)C(=O)c1nc2ccccc2n1C
 | 236 | Cc1ncc([N+](=O)[O-])n1CCO [METRONIDAZOLE]

SMILES | IC50 (Giardia intestinalis) [nM] | IC50 (Trichomonas vaginalis) [nM]
CCCSc1ccc2[nH]c(NC(=O)OC)nc2c1 [ALBENDAZOLE] |  | 1590
